Measured values as given in patent publication US20120220581A1, “IMIDAZO[1,2-b]PYRIDAZINE DERIVATIVES AND THEIR USE AS PDE10 INHIBITORS” (Janssen-Cilag, S.A., priority 2009, published 2012).

Key:
[1] = biological target: T1, Rat recombinant PDE10A (rPDE10A2) (Rattus norvegicus, UniProt Q9QYJ6); assay: In vitro assay PDE10A (SPA, 3H-cAMP); assay type: biochemical; details: pIC50 corresponds to the −log IC50 expressed in mol/L; read-out: PDE10A2 pIC50 (converted)
T1 construct: inferred from the Ni metal chelate purification; made in house; host or cells: Sf9 insect cells (baculovirus)
T1 sequence (Q9QYJ6 1-794): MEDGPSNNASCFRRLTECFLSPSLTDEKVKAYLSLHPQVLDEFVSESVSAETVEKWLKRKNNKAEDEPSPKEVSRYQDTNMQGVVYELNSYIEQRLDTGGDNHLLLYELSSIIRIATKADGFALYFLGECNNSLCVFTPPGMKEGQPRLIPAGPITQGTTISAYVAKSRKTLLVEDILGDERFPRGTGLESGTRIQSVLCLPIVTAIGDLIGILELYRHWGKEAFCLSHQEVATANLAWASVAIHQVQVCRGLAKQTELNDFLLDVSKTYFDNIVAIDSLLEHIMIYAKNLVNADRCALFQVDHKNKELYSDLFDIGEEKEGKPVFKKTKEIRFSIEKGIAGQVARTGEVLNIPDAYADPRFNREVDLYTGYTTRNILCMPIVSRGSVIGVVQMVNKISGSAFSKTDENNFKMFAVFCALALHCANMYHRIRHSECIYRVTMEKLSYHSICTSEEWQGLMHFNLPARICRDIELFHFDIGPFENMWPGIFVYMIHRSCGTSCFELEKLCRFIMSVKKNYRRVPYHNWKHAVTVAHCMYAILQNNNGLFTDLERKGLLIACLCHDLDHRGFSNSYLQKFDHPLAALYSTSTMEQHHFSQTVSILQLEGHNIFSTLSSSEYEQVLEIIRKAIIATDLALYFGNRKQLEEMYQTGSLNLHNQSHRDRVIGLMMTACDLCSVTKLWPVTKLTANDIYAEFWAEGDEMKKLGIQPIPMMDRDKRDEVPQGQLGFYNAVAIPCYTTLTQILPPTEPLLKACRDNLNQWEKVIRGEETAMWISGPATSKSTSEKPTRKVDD
Protocol: Rat recombinant PDE10A (rPDE10A2) was expressed in Sf9 cells using a recombinant rPDE10A baculovirus construct. Cells were harvested after 48 h of infection and the rPDE10A protein was purified by metal chelate chromatography on Ni-sepharose 6FF. Tested compounds were dissolved and diluted in 100% DMSO to a concentration 100 fold of the final concentration in the assay. Compound dilutions (0.4 μl) were added in 384 well plates to 20 μl of incubation buffer (50 mM Tris pH 7.8, 8.3 mM MgCl2, 1.7 mM EGTA). 10 μl of rPDE10A enzyme in incubation buffer was added and the reaction was started by addition of 10 μl substrate to a final concentration of 60 nM cAMP and 0.008 μCi ^3H-cAMP. The reaction was incubated for 60 minutes at room temperature. […] After sedimentation of the beads during 30 minutes the radioactivity was measured in a Perkin Elmer Topcount scintillation counter and results were expressed as cpm. For blanc values the enzyme was omitted from the reaction and replaced by incubation buffer. Control values were obtained by addition of a final concentration of 1% DMSO instead of compound. The same assay principle is applied for the measurement of the affinity of the compound for other members of the PDE family with appropriate modifications in incubation buffer, substrate concentration, incubation time and stop solution.

[2] = system: apomorphine-induced stereotypy in rats; assay: Apomorphine-induced stereotypy in rats (APO); assay type: in vivo; details: Rattus norvegicus, n.d.: found not active at threshold dose 2.5 mg/kg or 10 mg/kg (a)
Protocol: Apomorphine (1.0 mg/kg, i.v.)-induced stereotypy (compulsive sniffing, licking, chewing) was scored every 5 min over the first hour after injection of apomorphine, following a 1 hour interval pre-treatment with the test compound. The score system was: (3) pronounced, (2) moderate, (1) slight, and (0) absent.

[3] = po, * not soluble, tested orally as a suspension

Question: Which results are given for CCc1ccc(-c2c(C)nc3c(-c4ccncc4)cc(C)nn23)cn1 [compound 88, 3-(6-ethyl-3-pyridinyl)-2,6-dimethyl-8-(4-pyridinyl)-imidazo[1,2-b]pyridazine]?
Answer: IC50 [1]: 115 nM; ED50 ([2]; not further tested): > 2.5 mg/kg

Question: What does the source list for Cc1nc2c(N3CCOCC3)ccnn2c1-c1ccc(N2CCCC2)nc1 [compound 89, 2-methyl-8-(4-morpholinyl)-3-[6-(1-pyrrolidinyl)-3-pyridinyl]-imidazo[1,2-b]pyridazine]?
Answer: IC50 [1]: 132 nM; ED50 [2, 3]: > 2.5 mg/kg

Question: Which results are given for Cc1nc2c(N3CCOCC3)ccnn2c1-c1ccc(NC(C)C)nc1 [compound 90, N-(1-methylethyl)-5-[2-methyl-8-(4-morpholinyl)imidazo[1,2-b]pyridazin-3-yl]-2-pyridinamine]?
Answer: IC50 [1]: 67.6 nM; ED50 ([2]; not further tested): > 2.5 mg/kg

Question: For Cc1nc2c(N3CCOCC3)ccnn2c1-c1ccnc(N2CCCC2)c1 [compound 92, 2-methyl-8-(4-morpholinyl)-3-[2-(1-pyrrolidinyl)-4-pyridinyl]-imidazo[1,2-b]pyridazine], which IC50 [1] is on record?
Answer: 57.5 nM

Question: And the ED50 ([2]; not further tested)?
Answer: > 2.5 mg/kg

Question: What does the source list for Cc1nc2c(N3CCOCC3)ccnn2c1-c1ccnc(NC(C)C)c1 [compound 93, N-(1-methylethyl)-4-[2-methyl-8-(4-morpholinyl)imidazo[1,2-b]pyridazin-3-yl]-2-pyridinamine]?
Answer: IC50 [1]: 25.1 nM; ED50 ([2]; not further tested): > 2.5 mg/kg

Question: Cc1cc(-c2ccncc2)c2nc(C)c(-c3ccc(N4CCNCC4)nc3)n2n1 [compound 96, 2,6-dimethyl-3-[6-(1-piperazinyl)-3-pyridinyl]-8-(4-pyridinyl)-imidazo[1,2-b]pyridazine] was tested. Which IC50 [1] did it give?
Answer: 186 nM

Question: And the ED50 ([2]; not further tested)?
Answer: > 2.5 mg/kg

Question: What does the source list for Cc1nc2c(-c3ccncc3)ccnn2c1-c1ccc(N2CCNCC2)nc1 [compound 97, 2-methyl-3-[6-(1-piperazinyl)-3-pyridinyl]-8-(4-pyridinyl)-imidazo[1,2-b]pyridazine]?
Answer: IC50 [1]: 141 nM; ED50 ([2]; not further tested): > 2.5 mg/kg

Question: What does the source list for c1cc(N2CCOCC2)c2nc(C3CC3)c(-c3ccc(N4CCNCC4)nc3)n2n1 [compound 98, 2-cyclopropyl-8-(4-morpholinyl)-3-[6-(1-piperazinyl)-3-pyridinyl]-imidazo[1,2-b]pyridazine]?
Answer: IC50 [1]: 110 nM; ED50 ([2]; not further tested): > 2.5 mg/kg

Question: What does the source list for Cc1nc2c(-c3ccncc3)cc(C3CC3)nn2c1-c1ccc(N2CCNCC2)nc1 [compound 99, 6-cyclopropyl-2-methyl-3-[6-(1-piperazinyl)-3-pyridinyl]-8-(4-pyridinyl)-imidazo[1,2-b]pyridazine]?
Answer: IC50 [1]: 302 nM; ED50 ([2]; not further tested): > 2.5 mg/kg

Question: Which IC50 [1] does the source give for Cc1cc(-c2ccncc2)c2nc(C3CC3)c(-c3ccc(N4CCNCC4)nc3)n2n1 [compound 101, 2-cyclopropyl-6-methyl-3-[6-(1-piperazinyl)-3-pyridinyl]-8-(4-pyridinyl)-imidazo[1,2-b]pyridazine] here?
Answer: 178 nM

Question: And the ED50 ([2]; not further tested)?
Answer: > 2.5 mg/kg

Question: For c1cc(-c2ccnn3c(-c4ccc(N5CCNCC5)nc4)c(C4CC4)nc23)ccn1 [compound 102, 2-cyclopropyl-3-[6-(1-piperazinyl)-3-pyridinyl]-8-(4-pyridinyl)-imidazo[1,2-b]pyridazine], which IC50 [1] is on record?
Answer: 44.7 nM

Question: And the ED50 ([2]; not further tested)?
Answer: > 2.5 mg/kg

Question: With Cc1nc2c(N3CCOCC3)ccnn2c1-c1ccnc(N2CCNCC2)c1 [compound 103, 2-methyl-8-(4-morpholinyl)-3-[2-(1-piperazinyl)-4-pyridinyl]-imidazo[1,2-b]pyridazine] as the compound, how does the IC50 [1] read?
Answer: 257 nM

Question: What about the ED50 ([2]; not further tested) of the same compound?
Answer: > 2.5 mg/kg

Question: Which IC50 [1] does the source give for Cc1nc2c(N3CCOCC3)ccnn2c1-c1ccc(CC(C)C)nc1 [compound 104, 2-methyl-3-[6-(2-methylpropyl)-3-pyridinyl]-8-(4-morpholinyl)-imidazo[1,2-b]pyridazine] here?
Answer: 53.7 nM

Question: What about the ED50 ([2]; not further tested) of the same compound?
Answer: > 2.5 mg/kg

Question: Which results are given for Cc1nc2c(N3CCOCC3)ccnn2c1-c1ccnc(CC(C)C)c1 [compound 105, 2-methyl-3-[2-(2-methylpropyl)-4-pyridinyl]-8-(4-morpholinyl)-imidazo[1,2-b]pyridazine]?
Answer: IC50 [1]: 25.1 nM; ED50 ([2]; not further tested): > 2.5 mg/kg

Question: Which results are given for CCc1ccc(-c2c(C3CC3)nc3c(N4CCOCC4)ccnn23)cn1 [compound 106, 2-cyclopropyl-3-(6-ethyl-3-pyridinyl)-8-(4-morpholinyl)-imidazo[1,2-b]pyridazine]?
Answer: IC50 [1]: 66.1 nM; ED50 ([2]; not further tested): > 2.5 mg/kg

Question: Which IC50 [1] does the source give for CCc1ccc(-c2c(C)nc3c(N4CCOCC4)cc(C4CC4)nn23)cn1 [compound 107, 6-cyclopropyl-3-(6-ethyl-3-pyridinyl)-2-methyl-8-(4-morpholinyl)-imidazo[1,2-b]pyridazine] here?
Answer: 269 nM

Question: And the ED50 ([2]; not further tested)?
Answer: > 2.5 mg/kg

Question: With CCc1ccc(-c2c(C)nc3c(N4CCOCC4)cc(C)nn23)cn1 [compound 108, 3-(6-ethyl-3-pyridinyl)-2,6-dimethyl-8-(4-morpholinyl)-imidazo[1,2-b]pyridazine] as the compound, how does the IC50 [1] read?
Answer: 155 nM

Question: And the ED50 ([2]; not further tested)?
Answer: > 2.5 mg/kg

Question: How did the IC50 [1] turn out when CCc1ccc(-c2cnc3c(N4CCOCC4)ccnn23)cn1 [compound 109, 3-(6-ethyl-3-pyridinyl)-8-(4-morpholinyl)-imidazo[1,2-b]pyridazine] was run?
Answer: 251 nM

Question: And the ED50 ([2]; not further tested)?
Answer: > 2.5 mg/kg

Question: Cc1nc2c(-c3ccncc3)ccnn2c1-c1ccc(C2CC2)nc1 [compound 111, 3-(6-cyclopropyl-3-pyridinyl)-2-methyl-8-(4-pyridinyl)-imidazo[1,2-b]pyridazine] was tested. Which IC50 [1] did it give?
Answer: 97.7 nM

Question: And the ED50 ([2]; not further tested)?
Answer: > 2.5 mg/kg

Question: How did the IC50 [1] turn out when CO[C@H]1CCN(c2ccc(-c3c(C)nc4c(N5CCOCC5)ccnn34)cn2)C1 [compound 113, 3-[6-[(3S)-3-methoxy-1-pyrrolidinyl]-3-pyridinyl]-2-methyl-8-(4-morpholinyl)-imidazo[1,2-b]pyridazine] was run?
Answer: 158 nM

Question: And the ED50 ([2]; not further tested)?
Answer: > 2.5 mg/kg

Question: How did the IC50 [1] turn out when Cc1nc2c(N3CCOCC3)ccnn2c1-c1cnn(Cc2cccnc2)c1 [compound 115, 2-methyl-8-(4-morpholinyl)-3-[1-(3-pyridinylmethyl)-1H-pyrazol-4-yl]-imidazo[1,2-b]pyridazine] was run?
Answer: 35.5 nM

Question: And the ED50 [2, 3]?
Answer: > 10 mg/kg

Question: Cc1nc2c(N3CCOCC3)ccnn2c1-c1cn[nH]c1 [compound 116, 2-methyl-8-(4-morpholinyl)-3-(1H-pyrazol-4-yl)-imidazo[1,2-b]pyridazine] was tested. Which IC50 [1] did it give?
Answer: 132 nM

Question: What about the ED50 [2, 3] of the same compound?
Answer: > 10 mg/kg

Question: COCCn1cc(-c2c(C3CC3)nc3c(N4CCOCC4)ccnn23)cn1 [compound 119, 2-cyclopropyl-3-[1-(2-methoxyethyl)-1H-pyrazol-4-yl]-8-(4-morpholinyl)-imidazo[1,2-b]pyridazine] was tested. Which IC50 [1] did it give?
Answer: 61.7 nM

Question: And the ED50 [2, 3]?
Answer: > 10 mg/kg

Question: Which results are given for COCCn1cc(-c2c(C(C)C)nc3c(N4CCOCC4)ccnn23)cn1 [compound 120, 3-[1-(2-methoxyethyl)-1H-pyrazol-4-yl]-2-(1-methylethyl)-8-(4-morpholinyl)-imidazo[1,2-b]pyridazine]?
Answer: IC50 [1]: 692 nM; ED50 ([2]; not further tested): > 10 mg/kg

Question: What does the source list for COCCn1cc(-c2c(C(F)(F)F)nc3c(-c4ccncc4)ccnn23)cn1 [compound 122, 3-[1-(2-methoxyethyl)-1H-pyrazol-4-yl]-8-(4-pyridinyl)-2-(trifluoromethyl)-imidazo[1,2-b]pyridazine]?
Answer: IC50 [1]: 30.2 nM; ED50 ([2]; not further tested): > 2.5 mg/kg

Question: What does the source list for COC(C)(C)Cn1cc(-c2c(C)nc3c(-c4ccncc4)ccnn23)cn1 [compound 123, 3-[1-(2-methoxy-2-methylpropyl)-1H-pyrazol-4-yl]-2-methyl-8-(4-pyridinyl)-imidazo[1,2-b]pyridazine]?
Answer: IC50 [1]: 27.5 nM; ED50 ([2]; not further tested): > 2.5 mg/kg

Question: How did the IC50 [1] turn out when COCCn1cc(-c2c(C)nc3c(-c4ccncc4)cc(C4CC4)nn23)cn1 [compound 126, 6-cyclopropyl-3-[1-(2-methoxyethyl)-1H-pyrazol-4-yl]-2-methyl-8-(4-pyridinyl)-imidazo[1,2-b]pyridazine] was run?
Answer: 50.1 nM

Question: What about the ED50 ([2]; not further tested) of the same compound?
Answer: > 2.5 mg/kg
